Test results reported in PubChem BioAssay (NCI).
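Interpolation was linear, between the two tested concentrations surrounding the appropriate level; five concentrations were tested over 48 hours in 96-well plates. GI50 is the concentration that inhibits growth by half. TGI is the concentration that stops growth completely.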

What was measured:
Assay in all cases: DTP human tumour cell line panel, 48 h
MDA-MB-231 breast = tested on: MDA-MB-231 breast
SW-620 colon = tested on: SW-620 colon
PC-3 prostate = tested on: PC-3 prostate
SNB-19 CNS = tested on: SNB-19 CNS
NCI-H522 lung = tested on: NCI-H522 lung
SF-539 CNS = tested on: SF-539 CNS
NCI-H226 lung = tested on: NCI-H226 lung
SK-MEL-5 melanoma = tested on: SK-MEL-5 melanoma
LOX IMVI melanoma = tested on: LOX IMVI melanoma
UACC-62 melanoma = tested on: UACC-62 melanoma

| SMILES | TGI (MDA-MB-231 breast) [µM] | TGI (SW-620 colon) [µM] | TGI (PC-3 prostate) [µM] | TGI (SNB-19 CNS) [µM] | TGI (NCI-H522 lung) [µM] | TGI (SF-539 CNS) [µM] | TGI (NCI-H226 lung) [µM] | TGI (SK-MEL-5 melanoma) [µM] | TGI (LOX IMVI melanoma) [µM] | TGI (UACC-62 melanoma) [µM] | GI50 (MDA-MB-231 breast) [µM] | GI50 (SW-620 colon) [µM] | GI50 (PC-3 prostate) [µM] | GI50 (SNB-19 CNS) [µM] | GI50 (NCI-H522 lung) [µM] | GI50 (SF-539 CNS) [µM] | GI50 (NCI-H226 lung) [µM] | GI50 (SK-MEL-5 melanoma) [µM] | GI50 (LOX IMVI melanoma) [µM] | GI50 (UACC-62 melanoma) [µM] |
| --- | --- | --- | --- | --- | --- | --- | --- | --- | --- | --- | --- | --- | --- | --- | --- | --- | --- | --- | --- | --- |
| CCN(CC)CCn1c2ccccc2c(=O)c2c(O)ccc(O)c21 | 29.9 | 31.5 | > 56.1 | > 74.8 | 35.9 | 50.3 | > 56.2 | 45.5 | 36.3 | 52.8 | – | – | – | – | – | – | – | – | – | – |
| Cc1ccc2nc(-c3ccccc3)c(N=O)n2c1 | 73.1 | > 100 | > 100 | > 100 | > 100 | 92.7 | > 100 | > 100 | > 100 | 49.6 | – | – | – | – | – | – | – | – | – | – |
| Cc1cc(Cc2cc(C)cc(C(C)(C)C)c2O)c(O)c(Cc2cc(C)cc(C(C)(C)C)c2O)c1 | 4.25 | 16.7 | 9.12 | 15.7 | 4.28 | 6.54 | 11.5 | 2.62 | 10.9 | 4.53 | – | – | – | – | – | – | – | – | – | – |
| COc1cc(NC(=O)CSc2nc3ccc(C)cc3c(=O)n2Cc2ccccc2)cc(OC)c1OC | > 100 | > 100 | > 100 | > 100 | 47 | 13.8 | 22.3 | 23.7 | > 100 | > 100 | 3.42 | > 100 | 6.88 | 21.4 | 4.63 | 3.46 | 3.2 | 3.67 | 55 | 2.93 |
| COc1cc(/C=N/NC(=O)c2cnn3c2NC(c2ccccc2)C3)ccc1Oc1ccccc1 (stereo not given) | 5.03 | 10.1 | 3.59 | 8.31 | 2.62 | 2.51 | 7.95 | 3.94 | 2.36 | 7.3 | 1.66 | 0.868 | 0.875 | 1.43 | 0.366 | 1.03 | 2.17 | 0.734 | 0.736 | 0.888 |
| CN(C)CC1C(=O)O[C@H]2[C@H]1CC/C(COC(=O)c1cc3ccccc3[nH]1)=C\CC[C@@]1(C)O[C@@H]21 (stereo not given in full) | 4.63 | 4.41 | 5.86 | 25.9 | 3.05 | 5.86 | 9.35 | 3.57 | 0.992 | 3.89 | 2 | 1.75 | 2.14 | 11.4 | 1.32 | 2.2 | 3.23 | 1.84 | 0.5 | 1.72 |
